This is an account of results in patent US20250262201A1, “COMPOUNDS AND METHODS USEFUL FOR STABILIZING PHENYLALANINE HYDROXYLASE MUTATIONS” (Agios Pharmaceuticals, Inc., priority 2022, published 2025).

Some results are limits rather than exact numbers.

The test concerns the target T1, human PAH with the R408W mutation (Homo sapiens, UniProt P00439, R408W).
T1 construct: expressed in transfected cells
T1 sequence (P00439 1-452 R408W): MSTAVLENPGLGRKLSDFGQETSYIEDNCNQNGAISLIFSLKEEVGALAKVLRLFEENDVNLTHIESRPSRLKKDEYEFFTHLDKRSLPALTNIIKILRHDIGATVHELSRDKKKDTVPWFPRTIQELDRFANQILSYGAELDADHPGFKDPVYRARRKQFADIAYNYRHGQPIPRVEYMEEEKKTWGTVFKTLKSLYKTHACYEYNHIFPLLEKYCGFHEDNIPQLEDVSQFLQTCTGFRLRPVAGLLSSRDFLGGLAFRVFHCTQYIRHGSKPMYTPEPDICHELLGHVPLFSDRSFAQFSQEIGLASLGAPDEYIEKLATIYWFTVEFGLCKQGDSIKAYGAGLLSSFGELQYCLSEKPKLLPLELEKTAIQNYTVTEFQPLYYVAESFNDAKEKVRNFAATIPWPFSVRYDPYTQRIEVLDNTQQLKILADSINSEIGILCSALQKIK
The test can be described thus: Cell Based Phenylalanine Flux Assay. As to conditions: A375 cells expressing human R408W PAH; 24 hrs compound incubation; 13C-Tyrosine by LC-MS; average where tested multiple times; read-out: AC50.
As for `C[C@H]1CN(C(=O)c2oc(-c3ccccn3)nc2C2CC2)[C@H](c2cc3ccccc3cn2)c2nc[nH]c21` [Example 407, (4-cyclopropyl-2-(pyridin-2-yl)oxazol-5-yl)((4R,7S)-4-(isoquinolin-3-yl)-7-methyl-6,7-dihydro-1H-imidazo[4,5-c]pyridin-5(4H)-yl)methanone], the concentration at half-maximal activity (AC50) (as a rule, the concentration giving half of the maximal activity seen) is less than 500 nM.
Consider `C[C@H]1CN(C(=O)c2oc(-c3ccccn3)nc2C2CC2)[C@@H](c2cc3ccccc3cn2)c2nc[nH]c21` [Example 408, (4-cyclopropyl-2-(pyridin-2-yl)oxazol-5-yl)((4S,7S)-4-(isoquinolin-3-yl)-7-methyl-6,7-dihydro-1H-imidazo[4,5-c]pyridin-5(4H)-yl)methanone], for which the half-maximal activity concentration (AC50) lay in the range of 500 to 1000 nM.
Take `C[C@@H]1CN(C(=O)c2oc(-c3ccccn3)nc2C2CC2)[C@H](c2cc3ccccc3cn2)c2nc[nH]c21` [Example 410, (4-cyclopropyl-2-(pyridin-2-yl)oxazol-5-yl)((4R,7R)-4-(isoquinolin-3-yl)-7-methyl-6,7-dihydro-1H-imidazo[4,5-c]pyridin-5(4H)-yl)methanone]: the AC50 is less than 500 nM.
With `CC(C)(F)c1nnc(C(=O)N2CCc3[nH]cnc3[C@H]2c2cc3ccccc3cn2)o1` [Example 419, (R)-(5-(2-fluoropropan-2-yl)-1,3,4-oxadiazol-2-yl)(4-(isoquinolin-3-yl)-6,7-dihydro-1H-imidazo[4,5-c]pyridin-5(4H)-yl)methanone], the AC50 was less than 500 nM.
`O=C(C1CN(CC(F)(F)F)C1)N1CCc2[nH]cnc2[C@H]1c1cc2ccccc2cn1` [Example 420, (R)-(4-(isoquinolin-3-yl)-6,7-dihydro-1H-imidazo[4,5-c]pyridin-5(4H)-yl)(1-(2,2,2-trifluoroethyl)azetidin-3-yl)methanone]: the concentration at half-maximal activity (AC50) is 1000 to 5000 nM.
In the case of `CC(C)(O)c1nc(C(=O)N2CCc3[nH]cnc3[C@H]2c2cc3ccccc3cn2)no1` [Example 421, (R)-(5-(2-hydroxypropan-2-yl)-1,2,4-oxadiazol-3-yl)(4-(isoquinolin-3-yl)-6,7-dihydro-1H-imidazo[4,5-c]pyridin-5(4H)-yl)methanone], the concentration at half-maximal activity (AC50) is 500 to 1000 nM.
As for `CC(C)(O)c1noc(C(=O)N2CCc3[nH]cnc3[C@H]2c2cc3ccccc3cn2)n1` [Example 422, (R)-(3-(2-hydroxypropan-2-yl)-1,2,4-oxadiazol-5-yl)(4-(isoquinolin-3-yl)-6,7-dihydro-1H-imidazo[4,5-c]pyridin-5(4H)-yl)methanone], the AC50 was 1000 to 5000 nM.
As to `Cn1nc(C(F)F)nc1C(=O)N1CCc2[nH]cnc2[C@H]1c1cc2ccccc2cn1` [Example 423, (R)-(3-(difluoromethyl)-1-methyl-1H-1,2,4-triazol-5-yl)(4-(isoquinolin-3-yl)-6,7-dihydro-1H-imidazo[4,5-c]pyridin-5(4H)-yl)methanone], the half-maximal activity concentration (AC50) is less than 500 nM.
For `O=C(c1nnc(N2CC(F)C2)o1)N1CCc2[nH]cnc2[C@H]1c1cc2ccccc2cn1` [Example 424, (R)-(5-(3-fluoroazetidin-1-yl)-1,3,4-oxadiazol-2-yl)(4-(isoquinolin-3-yl)-6,7-dihydro-1H-imidazo[4,5-c]pyridin-5(4H)-yl)methanone], the AC50 was less than 500 nM.
For the compound `O=C(c1nnc(N2CCC(F)CC2)o1)N1CCc2[nH]cnc2[C@H]1c1cc2ccccc2cn1` [Example 425, (R)-(5-(4-fluoropiperidin-1-yl)-1,3,4-oxadiazol-2-yl)(4-(isoquinolin-3-yl)-6,7-dihydro-1H-imidazo[4,5-c]pyridin-5(4H)-yl)methanone], the AC50 is less than 500 nM.
As to `O=C(c1nnc(-c2ccn(C(F)F)n2)o1)N1CCc2[nH]cnc2[C@H]1c1cc2ccccc2cn1` [Example 426, (R)-(5-(1-(difluoromethyl)-1H-pyrazol-3-yl)-1,3,4-oxadiazol-2-yl)(4-(isoquinolin-3-yl)-6,7-dihydro-1H-imidazo[4,5-c]pyridin-5(4H)-yl)methanone], the half-maximal activity concentration (AC50) is less than 500 nM.
Take `C[C@H]1CN(C(=O)c2nnc(C(C)(C)C)o2)[C@@H](c2cc3ccccc3cn2)c2nc[nH]c21` [Example 427, (5-(tert-butyl)-1,3,4-oxadiazol-2-yl)((4S,7S)-4-(isoquinolin-3-yl)-7-methyl-6,7-dihydro-1H-imidazo[4,5-c]pyridin-5(4H)-yl)methanone]: the AC50 was 1000 to 5000 nM.
Turning to `C[C@H]1CN(C(=O)c2nnc(C(C)(C)C)o2)[C@H](c2cc3ccccc3cn2)c2nc[nH]c21` [Example 428, (5-(tert-butyl)-1,3,4-oxadiazol-2-yl)((4R,7S)-4-(isoquinolin-3-yl)-7-methyl-6,7-dihydro-1H-imidazo[4,5-c]pyridin-5(4H)-yl)methanone], the concentration at half-maximal activity (AC50) lay in the range of 500 to 1000 nM.
On to `C[C@@H]1CN(C(=O)c2nnc(C(C)(C)C)o2)[C@@H](c2cc3ccccc3cn2)c2nc[nH]c21` [Example 429, (5-(tert-butyl)-1,3,4-oxadiazol-2-yl)((4S,7R)-4-(isoquinolin-3-yl)-7-methyl-6,7-dihydro-1H-imidazo[4,5-c]pyridin-5(4H)-yl)methanone], for which the half-maximal activity concentration (AC50) was 1000 to 5000 nM.
For `C[C@@H]1CN(C(=O)c2nnc(C(C)(C)C)o2)[C@H](c2cc3ccccc3cn2)c2nc[nH]c21` [Example 430, (5-(tert-butyl)-1,3,4-oxadiazol-2-yl)((4R,7R)-4-(isoquinolin-3-yl)-7-methyl-6,7-dihydro-1H-imidazo[4,5-c]pyridin-5(4H)-yl)methanone], the AC50 is less than 500 nM.
Regarding `O=C(c1cnn2ccccc12)N1CCc2[nH]cnc2[C@H]1c1cc2ccccc2cn1` [Example 431, (R)-(4-(isoquinolin-3-yl)-6,7-dihydro-1H-imidazo[4,5-c]pyridin-5(4H)-yl)(pyrazolo[1,5-a]pyridin-3-yl)methanone], the concentration at half-maximal activity (AC50) is less than 500 nM.
Next, `O=C(c1nnc(N2CCOCC2)o1)N1CCc2[nH]cnc2[C@H]1c1cc2ccccc2cn1` [Example 433, (R)-(4-(isoquinolin-3-yl)-6,7-dihydro-1H-imidazo[4,5-c]pyridin-5(4H)-yl)(5-morpholino-1,3,4-oxadiazol-2-yl)methanone]: 500 to 1000 nM; `CC(C)(C)c1ncc(C(=O)N2CCc3[nH]cnc3[C@H]2c2cc3ccccc3cn2)o1` [Example 435, (R)-(2-(tert-butyl)oxazol-5-yl)(4-(isoquinolin-3-yl)-6,7-dihydro-1H-imidazo[4,5-c]pyridin-5(4H)-yl)methanone]: less than 500 nM.
Take `O=C(c1nnc(-c2ncccc2F)o1)N1CCc2[nH]cnc2[C@H]1c1cc2ccccc2cn1` [Example 437, (R)-(5-(3-fluoropyridin-2-yl)-1,3,4-oxadiazol-2-yl)(4-(isoquinolin-3-yl)-6,7-dihydro-1H-imidazo[4,5-c]pyridin-5(4H)-yl)methanone]: the AC50 was less than 500 nM.
In the case of `COc1ccc(-c2nnc(C(=O)N3CCc4[nH]cnc4[C@H]3c3cc4ccccc4cn3)o2)nc1` [Example 438, (R)-(4-(isoquinolin-3-yl)-6,7-dihydro-1H-imidazo[4,5-c]pyridin-5(4H)-yl)(5-(5-methoxypyridin-2-yl)-1,3,4-oxadiazol-2-yl)methanone], the half-maximal activity concentration (AC50) is less than 500 nM.
`Cc1ccc(-c2nnc(C(=O)N3CCc4[nH]cnc4[C@H]3c3cc4ccccc4cn3)o2)nc1` [Example 439, (R)-(4-(isoquinolin-3-yl)-6,7-dihydro-1H-imidazo[4,5-c]pyridin-5(4H)-yl)(5-(5-methylpyridin-2-yl)-1,3,4-oxadiazol-2-yl)methanone]: the AC50 is less than 500 nM.
